According to ChEMBL document CHEMBL5233257, “Anticancer property of ginsenoside Rh2 from ginseng” (Eur J Med Chem, 2020):
Values after ≈ are worked out from the molar mass of the structure shown.

Legend:
[1] = tested on: Kasumi 1; test: Induction of apoptosis in human Kasumi 1 cells assessed as reduction in cell viability incubated for 72 hrs by CCK-8 assay; type: functional, cell-based; conditions: Kasumi 1, 72 h
[2] = tested on: HepG2; test: Induction of cell death in human HepG2 cells assessed as lethal dose; type: functional; conditions: read-out: LD50 (the source's name)
[3] = tested on: MCF7; test: Antiproliferative activity against human MCF7 cells; type: functional, cell-based
[4] = tested on: KG-1; test: Cytotoxicity against human KG-1 alpha cells incubated for 48 hrs by CCK-8 assay; type: functional, cell-based; conditions: KG-1, 48 h
[5] = tested on: PC-3; test: Antiproliferative activity against human PC-3 cells incubated for 3 days; type: functional, cell-based; conditions: PC-3, 72 h
[6] = Cytotoxicity against human HRA cells assessed as reduction in cell viability measured after 5 days by crystal violet staining based analysis; type: functional; conditions: 120 h
[7] = tested on: MDA-MB-231; test: Induction of cell death in human MDA-MB-231 cells; type: functional, cell-based
[8] = tested on: HepG2; test: Induction of apoptosis in human HepG2 beta-catenin cells incubated for 48 hrs by PI/Annexin V-FITC analysis; type: functional, cell-based; conditions: HepG2, 48 h
[9] = tested on: HL-60; test: Induction of apoptosis in human HL-60 cells assessed as reduction in cell viability incubated for 72 hrs by CCK-8 assay; type: functional, cell-based; conditions: HL-60, 72 h
[10] = tested on: HepG2; test: Induction of apoptosis in human HepG2 cells incubated for 24 hrs; type: functional, cell-based; conditions: HepG2, 24 h
[11] = tested on: HL-60; test: Induction of apoptosis in human HL-60 cells; type: functional, cell-based
[12] = tested on: PC-3; test: Antiproliferative activity against human PC-3 cells; type: functional, cell-based
[13] = tested on: HepG2; test: Induction of apoptosis in human HepG2 cells incubated for 72 hrs by PI/Annexin V-FITC analysis; type: functional, cell-based; conditions: HepG2, 72 h
[14] = tested on: HepG2; test: Induction of apoptosis in human HepG2 cells incubated for 48 hrs by PI/Annexin V-FITC analysis; type: functional, cell-based; conditions: HepG2, 48 h
[15] = tested on: Jurkat; test: Induction of apoptosis in human Jurkat cells; type: functional, cell-based
[16] = Cytotoxicity against human KK cells assessed as reduction in cell viability measured after 5 days by crystal violet staining based analysis; type: functional; conditions: 120 h
[17] = tested on: DU-145; test: Antiproliferative activity against human DU-145 cells incubated for 3 days; type: functional, cell-based; conditions: DU-145, 72 h
[18] = tested on: Huh-7; test: Induction of cell death in human Huh-7 cells; type: functional, cell-based
[19] = tested on: HepG2; test: Induction of apoptosis in human HepG2 beta-catenin cells incubated for 72 hrs by PI/Annexin V-FITC analysis; type: functional, cell-based; conditions: HepG2, 72 h
[20] = Induction of apoptosis in human HK-1 cells; type: functional, cell-based
[21] = tested on: HL-60; test: Cytotoxicity against human HL-60 cells measured after 24 hrs by MTT assay; type: functional, cell-based; conditions: HL-60, 24 h
[22] = tested on: KG-1; test: Cytotoxicity against human KG-1 alpha cells; type: functional, cell-based
[23] = Cytotoxicity against human KF cells assessed as reduction in cell viability measured after 5 days by crystal violet staining based analysis; type: functional; conditions: 120 h
[24] = tested on: HCT-116; test: Cytotoxicity against human HCT-116 assessed as reduction in cell viability by MTT assay; type: functional, cell-based
[25] = tested on: K562; test: Cytotoxicity against human K562 cells incubated for 48 hrs by CCK-8 assay; type: functional, cell-based; conditions: K562, 48 h
[26] = tested on: MCF7; test: Induction of apoptosis in human MCF7 cells assessed as inhibition of cell viability; type: functional, cell-based
[27] = tested on: SK-HEP1; test: Induction of apoptosis in human SK-HEP1 cells incubated for 2 hrs by fluorescence microscopic analysis; type: functional, cell-based; conditions: SK-HEP1, 2 h
[28] = tested on: B16; test: Growth inhibition of mouse B16 cells; type: functional, cell-based
[29] = tested on: MDA-MB-231; test: Induction of apoptosis in human MDA-MB-231 cells assessed as inhibition of cell viability; type: functional, cell-based
[30] = Inhibition of proliferation in human Jurkat cells assessed as reduction in cell viability incubated for 48 hrs by CCK-8 assay; type: functional, cell-based
[31] = tested on: A549; test: Antiproliferative activity against human A549 cells; type: functional, cell-based
[32] = tested on: SW480; test: Induction of cell death in human SW480 cells incubated for 48 hrs by trypan blue staining based analysis; type: functional; conditions: SW480, 48 h
[33] = tested on: REH; test: Induction of apoptosis in human REH cells; type: functional, cell-based
[34] = tested on: HeLa; test: Induction of apoptosis in human HeLa cells incubated for 2 hrs by fluorescence microscopic analysis; type: functional, cell-based
[35] = tested on: MDA-MB-231; test: Antiproliferative activity against human MDA-MB-231 cells; type: functional, cell-based
[36] = tested on: HepG2; test: Induction of apoptosis in human HepG2 cells incubated for 72 hrs; type: functional, cell-based; conditions: HepG2, 72 h
[37] = tested on: HCT-116; test: Induction of cell death in human HCT-116 cells incubated for 48 hrs by trypan blue staining based analysis; type: functional; conditions: HCT-116, 48 h
[38] = tested on: LNCaP; test: Antiproliferative activity against human LNCaP cells incubated for 3 days; type: functional, cell-based; conditions: 72 h
[39] = tested on: SW480; test: Induction of apoptosis in human SW480 cells incubated for 2 hrs by fluorescence microscopic analysis; type: functional, cell-based; conditions: SW480, 2 h
[40] = tested on: LNCaP; test: Antiproliferative activity against human LNCaP cells; type: functional, cell-based
[41] = tested on: THP-1; test: Induction of apoptosis in human THP-1 cells; type: functional, cell-based
[42] = Cytotoxicity against human KFR cells assessed as reduction in cell viability measured after 5 days by crystal violet staining based analysis; type: functional; conditions: 120 h
[43] = tested on: B16-F10; test: Induction of cell death in mouse B16-F10 cells; type: functional, cell-based
[44] = tested on: U-937; test: Cytotoxicity against human U-937 cells measured after 24 hrs by MTT assay; type: functional, cell-based; conditions: U-937, 24 h

Structure (SMILES): CC(C)=CCC[C@](C)(O)[C@H]1CC[C@]2(C)[C@@H]1[C@H](O)C[C@@H]1[C@@]3(C)CC[C@H](O[C@@H]4O[C@H](CO)[C@@H](O)[C@H](O)[C@H]4O)C(C)(C)[C@@H]3CC[C@]12C [GINSENOSIDE RH2]
- IC50 [1]: 60.1 µM
- CC50 [2]: 10 µM
- EC50 [3]: 52.5 µM
- IC50 [4]: 60 µM
- IC50 [5]: 35 µM
- IC50 [6]: 30 µM
- IC50 [7]: 39.9 µM
- IC50 [8]: 129 µM
- IC50 [9]: 25.6 µM
- IC50 [10]: 42.1 µM
- IC50 [11]: 25 µM
- EC50 [12]: 5.5 µM
- IC50 [13]: 58.1 µM
- IC50 [14]: 100 µM
- IC50 [15]: 35 µM
- IC50 [16]: 45 µM
- IC50 [17]: 38 µM
- IC50 [18]: 39 µM
- IC50 [19]: 83.3 µM
- IC50 [20]: 12 µM
- IC50 [21]: 38 µM
- IC50 [22]: 75 µM
- IC50 [23]: 40 µM
- IC50 [24]: 19.6 µM
- IC50 [25]: 60 µM
- IC50 [26]: 50 µM
- IC50 [27]: 3.15 µg/mL (≈ 5.06 µM)
- IC50 [28]: 4.1 µg/mL (≈ 6.58 µM)
- IC50 [29]: 50 µM
- IC50 [30]: 35 µM
- IC50 [31]: 28.5 µg/mL (≈ 45.8 µM)
- IC50 [32]: 35 µM
- IC50 [33]: 40 µM
- IC50 [34]: 2.52 µg/mL (≈ 4.05 µM)
- EC50 [35]: 57.4 µM
- IC50 [36]: 1.65 µg/mL (≈ 2.65 µM)
- IC50 [37]: 35 µM
- IC50 [38]: 17 µM
- IC50 [39]: 4.06 µg/mL (≈ 6.52 µM)
- EC50 [40]: 4.4 µM
- IC50 [41]: 15 µg/mL (≈ 24.1 µM)
- CC50 ([41]; read-out: LC50 (the source's name)): 15 µg/mL (≈ 24.1 µM)
- IC50 [42]: 41 µM
- IC50 [43]: 35.6 µM
- IC50 [44]: 38 µM
